According to patent US11130960B2, “Methods for conferring or enhancing herbicide resistance on plants and/or alga with protoporphyrinogen oxidase variants” (FARM HANNONG CO., LTD., priority 2014, dated 2021):

system: CyPPO2; assay: Growth inhibition of transformed PPO-deficient E. coli BT3(ΔPPO) on LB agar medium; format: cell-based, Oscillatoria nigro-viridis PCC 7112; conditions: 37° C., 16~20 hours
Excerpt: To test herbicide resistance of CyPPO2, CyPPO4, CyPPO8 and CyPPO12 isolated in Example 1, PPO-deficient BT3 E. coli [hereinafter, referred to as BT3(ΔPPO)] was transformed with CyPPO2, CyPPO4, CyPPO8 or CyPPO12 gene, respectively and then cultured in the presence of herbicides to examine growth inhibition of the transformed E. coli. As a negative control, Arabidopsis thaliana-derived wild-type PPO (wild-type AtPPO1) was used, and wild-type AtPPO1 has sensitivity to PPO-based herbicides and its sequence information is available in GeneBank accession no. AX084732 (a nucleotide sequence of the gene is represented by SEQ ID NO: 10, and an amino acid sequence thereof is represented by SEQ ID NO: 9). As a positive control, Mutant AtPPO1 was used, in which amino acid replacements of Y426M (replacement of tyrosine by methionine at position 426) and S305L (replacement of serine by leucine at position 305) occur in the amino acid sequence of the wild-type AtPPO1 (an amino acid sequence is represented by SEQ ID NO: 11) (Li X, Volrath S L., N D B. G., Chilcott C E, Johnson M A, Ward E R, Law M D (2003) Development of protoporphyrinogen oxidase as an efficient selection marker for Agrobacterium tumefaciens-mediated transformation of maize. Plant physiology 133:736-747).
BT3(ΔPPO) strain was provided by Hokkaido University (Japan) and it is an E. coli strain which is deficient in hemG-type PPO and has Kanamycin resistance (Watanabe et al., (2001) Dual targeting of spinach protoporphyrinogen oxidase II to mitochondria and chloroplasts by alternative use of two in-frame […] codons. JBC 2047420481).
HVE-50 autoclave from Hirayama, HS2100A electronic scale from Hansung Instrument, CB-30V clean bench from Jeio Tech, JSI-200CL incubator from JSR, 1210 type UV-visible spectrophotometer from Thermo Fisher Scientific, MQ-200 photometer from Apogee, and Bio-Rad MyCycler as PCR machine were used. The autoclave was used under conditions of 121° C. and 15 minutes, and the incubator was used at 37° C. with lighting of 160˜200 μmol m^−2 s^−1 for a culture time of 14˜20 hours. LB medium (10 g/L of Bacto-Tryptone, 5 g/L of Yeast extract, 10 g/L of sodium chloride, 15 g/L of Bacto agar) and an antibiotic Chloramphenicol (Duchefa) were used.
To clone each of the CyPPO2, CyPPO4, CyPPO8 and CyPPO12 genes isolated and amplified in Example 1 into pACBB (its structure is shown in FIG. 2), 10 μl of a solution containing 4 μl of each PPO gene, […], 1 μl of 10× buffer A, 1 μl of 10× buffer B, 1 μl of ligase (RBC, 3 unit/μl) was prepared and allowed to react at 22° C. for 30 minutes. The reaction solution was added to 100 μl of DH5 alpha competent cells, and allowed to react on ice for 20 minutes and then left at 42° C. for 40 seconds. Thereafter, the cells were left on ice for 2 minutes, and then 1 ml of LB broth was added thereto, followed by incubation with shaking at 37° C. for 1 hour. The strains having each gene insert in the culture medium were harvested, and then cultured on LB agar medium containing chloramphenicol.
For seed culture of E. coli transformed with respective genes, single colonies thereof were cultured in 3 ml of LB broth containing chloramphenicol overnight, and each 100 μl thereof was sub-cultured in 3 ml of fresh LB broth until absorbance (OD600) reached 0.5˜1. They were diluted with LB broth to absorbance (OD600) of 0.5. 10-fold dilution of this diluted solution was performed with LB broth five times. Next, 10 μl of the diluted solution of the transformed E. coli culture was dropped on LB agar medium (petri dish) containing chloramphenicol and a variety of herbicide stocks at different concentrations (0˜400 μM). The LB agar plates were incubated at 37° C. At 16˜20 hours after culture, growth inhibition was examined with the naked eye. Further, growth inhibition of the strains cultured in a medium containing Tiafenacil was examined under light (lighting of 169 μmol m^−2s^−1) and dark conditions.

| SMILES | concentration at which growth inhibition was hardly observed |
| --- | --- |
| CS(=O)(=O)NC(=O)c1cc(Oc2ccc(C(F)(F)F)cc2Cl)ccc1[N+](=O)[O-] [Fomesafen] | 400 µM |
| COC(=O)CSc1cc(/N=c2\sc(=O)n3n2CCCC3)c(F)cc1Cl [Fluthiacet-methyl] | 400 µM |
| Cc1nn(-c2cc(NS(C)(=O)=O)c(Cl)cc2Cl)c(=O)n1C(F)F [Sulfentrazone] | 400 µM |
| CCOc1cc(Oc2ccc(C(F)(F)F)cc2Cl)ccc1[N+](=O)[O-] [Oxyfluorfen] | 400 µM |
| CC(C)N(C)S(=O)(=O)NC(=O)c1cc(-n2c(=O)cc(C(F)(F)F)n(C)c2=O)c(F)cc1Cl [Saflufenacil] | 25 µM |
| CC(C)=C1OC(=O)N(c2cc(OC3CCCC3)c(Cl)cc2F)C1=O [Pentoxazone] | 400 µM |
| C#CCN(C)c1c(C#N)cnn1-c1nn2c(c1Cl)CCCC2 [Pyraclonil] | 400 µM |
| C=CCOC(=O)C(C)(C)OC(=O)c1cc(-n2c(=O)cc(C(F)(F)F)n(C)c2=O)ccc1Cl [Butafenacil] | 25 µM |
| COC(=O)CCNC(=O)C(C)Sc1cc(-n2c(=O)cc(C(F)(F)F)n(C)c2=O)c(F)cc1Cl (stereo not shown) [Tiafenacil] | 25 µM |
| C#CCN1C(=O)COc2cc(F)c(N3C(=O)C4=C(CCCC4)C3=O)cc21 [Flumioxazin] | 25 µM |
| CCOC(=O)COc1cc(-c2nn(C)c(OC(F)F)c2Cl)c(F)cc1Cl [Pyraflufen-ethyl] | 400 µM |
| O=C(O)c1cc(Oc2ccc(C(F)(F)F)cc2Cl)ccc1[N+](=O)[O-] [Acifluorfen] | 400 µM |
| CC(C)Oc1cc(-n2nc(C(C)(C)C)oc2=O)c(Cl)cc1Cl [Oxadiazon] | 400 µM |
